Columns and labels:
[1] = test system: VEGFR-2; set-up: method as in PMID 28942113, PMID 21078410, PMID 26916914, PMID 27367493, PMID 35807236; conditions: in Figure 2; cited from earlier work
[2] = test system: human breast cancer (MCF-7) cell line; assay: MTT cytotoxicity assay on MCF-7; type: cell-based; conditions: MCF7, 24 h incubation, mean and standard error of three tests
Procedure: (§1) Afterward, the determination of the tested sample concentrations that were sufficient to kill 50 percent of the cell population (IC50) was done by using the cytotoxicity results in plotting a dose-response curve.
(§2) In addition, cytotoxic activities were reported as the average IC50 from three separate tests.
The cytotoxicity of the investigated substances was assessed and determined by MTT assay, and the detailed cytotoxicity assay is included in the Supplementary File S1 [57, 58].
1H-NMR spectra of compound 12c-1
(§3) The tested human breast cancer (MCF -7) cell lines and normal cell line LLC - Mk2 were obtained from the American Type Culture Collection (ATCC, Rockville, MD). The cells were grown on RPMI -1640 medium supplemented with 10% inactivated fetal calf serum and 50µg/mL gentamycin (Lonza, Belgium). The cells were maintained at 37 °C in a humidified atmosphere with 5% CO 2 and were subcultured two to three times a week during the period of experiment .
(§4) For antitumor assays, the tumor cell lines were suspended in medium at cell density of 5x10^4 cells/well in Corning® 96-well tissue culture plates and then incubated for 24 hours. The tested compounds were then added into 96-well plates (six replicates) to achieve eight concentrations for each compound. Six vehicle controls with media or 0.5 % DMSO were run for each 96 well plate as a control. After incubating for 24 h, the numbers of viable cells were determined by the MTT assay. Briefly, the media was removed from the 96-well plate and replaced with 100 µl of fresh culture RPMI 1640 medium without phenol red then 10
(§5) (1 picture or pasted object on this page, not shown here) […]
(§6) µL of the 12 mM MTT stock solution {5 mg of 3-(4,5-dimethylthiazol-2-yl)-2,5-diphenyltetrazolium bromide purchased from Sigma-Aldrich (St. Louis, MO) in 1 mL of Phosphate buffered saline} to each well including the untreated controls. The 96 well plates were then incubated at 37°C and 5% CO 2 for 4 hours.
(§7) An 85 µl aliquot of the media was removed from the wells, and 50 µL of DMSO was added to each well and mixed thoroughly with the pipette and incubated at 37 °C for 10 min. Then, the optical density was measured at 590 nm with the microplate reader (SunRise, TECAN, Inc, USA) to dete rmine the number of viable cells and the percentage of viability was calculated as [(ODt/ODc)]x100% where ODt is the mean optical density of wells treated with the tested sample and ODc is the mean optical density of untreated cells. The relation between surviving cells and drug concentration is plotted to get the survival curve of each tumor cell line after treatment with the specified compound. The 50% inhibitory concentration (IC 50), the concentration required to cause toxic effects in 50% of intact cells, was estimated from graphic plots of the dose response curve for each conc. using GraphPad Prism software (San Diego, CA. USA)[ 2].
1. Mosmann, T. Rapid colorimetric assay for cellular growth and survival: application to proliferation and cytotoxicity assays. J. Immunol. Methods 1983, 65, 55-63.

[3] = MTT cytotoxicity assay on normal cell line LLC-Mk2; type: cell-based; conditions: rhesus monkey, LLC-Mk2 kidney epithelial normal cells, mean and standard error
Procedure: as §1, §2
The cytotoxicity of the investigated substances was assessed and determined by MTT assay, and the detailed cytotoxicity assay is included in the Supplementary File S1 [57, 58]. […]
as §3, §4, §5, §6
as §7, with “2]. […]” for “2].”

Compound | melting point [°C] | VEGFR-2 inhibition [1] [%] | IC50 [2] [µM] | CC50 at 24 h [3] [µM]
CC(=NNc1nc(C)c(N=Nc2ccc(Cl)cc2Cl)s1)c1cc2cc(N=Nc3ccccc3)ccc2oc1=O [Compound 6e] | 216 to 218 | – | – | –
O=c1oc2cc(O)ccc2c(Oc2ccc(OCCN3CCCCC3)cc2)c1-c1ccc(F)cc1 [X = O] | – | 82.92 | – | –
CC(=NNC1=NC(=O)C(=NNc2ccc(Cl)cc2)S1)c1cc2cc(N=Nc3ccccc3)ccc2oc1=O [Compound 10b] | 190 to 192 | – | – | –
CC(=NNc1nc(-c2ccccc2)cs1)c1cc2cc(N=Nc3ccccc3)ccc2oc1=O [Compound 12a] | 217 to 219 | – | – | –
C/C(=N\Nc1nc(-c2ccc([N+](=O)[O-])cc2)cs1)c1cc2cc(/N=N/c3ccccc3)ccc2oc1=O [Compound 12c] | 231 to 233 | – | – | –
C/C(=N\Nc1nc(C)c(/N=N/c2ccccc2)s1)c1cc2cc(/N=N/c3ccccc3)ccc2oc1=O [Compound 6a] | 201 to 203 | – | – | –
CC(=NNC1=NC(=O)C(=NNc2ccc(C)cc2)S1)c1cc2cc(N=Nc3ccccc3)ccc2oc1=O [Compound 10a] | – | – | 28.6 ± 0.64 | 140 ± 10.3
C/C(=N\c1ccc(F)cc1)c1c(O)c2ccccc2oc1=O [III] | – | 94 | – | –
CNC(=O)c1cc(Oc2ccc(NC(=O)Nc3ccc(Cl)c(C(F)(F)F)c3)cc2)ccn1 [Sorafenib, reference compound] | – | – | 5.1 ± 0.49 | 135 ± 4.08
O=c1oc2cc(O)ccc2c(Nc2ccc(OCCN3CCCCC3)cc2)c1-c1ccc(F)cc1 [X = NH] | – | 88.42 | – | –
CC(=NNC(N)=S)c1cc2cc(N=Nc3ccccc3)ccc2oc1=O [Compound 3, 2-(1-(2-oxo-6-(phenyldiazenyl)-2H-chromen-3-yl)ethylidene)hydrazine-1-carbothioamide] | 177 to 179 | – | – | –
CO/C=N\C1=C(C#N)C(c2ccc(F)cc2)c2c(c3ccccc3oc2=O)C1 (stereo not drawn) [IV] | – | 94 | – | –
CC(=NNC1=NC(=O)C(=NNc2ccc([N+](=O)[O-])cc2)S1)c1cc2cc(N=Nc3ccccc3)ccc2oc1=O [Compound 10c] | – | – | 15.7 ± 0.67 | 163 ± 9.12
COc1ccc(/N=N/c2sc(N/N=C(\C)c3cc4cc(/N=N/c5ccccc5)ccc4oc3=O)nc2C)cc1 [Compound 6c] | 179 to 181 | – | 14.1 ± 0.63 | 141 ± 5.15
COc1ccc(-c2csc(NN=C(C)c3cc4cc(N=Nc5ccccc5)ccc4oc3=O)n2)cc1 [Compound 12b] | 205 to 207 | – | – | –
CC(=NNc1nc(C)c(N=Nc2ccc(Cl)cc2)s1)c1cc2cc(N=Nc3ccccc3)ccc2oc1=O [Compound 6d] | – | – | 10.5 ± 0.71 | 132 ± 8.26
CC(=NNc1nc(C)c(N=Nc2ccc(C)cc2)s1)c1cc2cc(N=Nc3ccccc3)ccc2oc1=O [Compound 6b] | – | – | 11.2 ± 0.8 | 152 ± 9.3

— publication PMC9861390, “Synthesis and Molecular Docking of Some Novel 3-Thiazolyl-Coumarins as Inhibitors of VEGFR-2 Kinase” (Molecules, 2023)
